Here are results for 15 compounds from patent US9592221B2, “Antibacterial agents: aryl myxopyronin derivatives” (priority 2012, dated 2017).

The test system of test [1] is Acinetobacter baumannii ATCC 19606. Nature of the test: MIC, spiral gradient endpoint assay, A. baumannii. It counts as cell-based. As to conditions: ATCC19606; Acinetobacter baumannii ATCC 19606.
Test [2] deals with E. coli RNA polymerase σ^70 holoenzyme (Escherichia coli, UniProt P0A8T7+P0A8V2). Put plainly: Fluorescence-detected RNA polymerase assay, E. coli RNA polymerase. The test is classed as biochemical. As to conditions: read-out: IC50 E. coli RNAP.
Test [3] deals with Escherichia coli D21f2tolC. Put plainly: MIC, spiral gradient endpoint assay, E. coli D21f2tolC. It counts as cell-based. As to conditions: Escherichia coli, D21F2TOLC, read-out: MIC E. coli D21f2toIC.
The subject of test [4] is Staphylococcus aureus ATCC 12600. Nature of the test: MIC, spiral gradient endpoint assay, S. aureus ATCC 12600. The test is classed as cell-based. As to conditions: ATCC12600; Staphylococcus aureus ATCC 12600.
For another test, the system named is Brucella melitensis 16M. Nature of the test: microbe, parasite or virus in culture. As to conditions: Brucella melitensis, 16M, read-out: MIC B. melitensis 16M. It counts as cell-based.
The subject of the next test is Burkholderia mallei CHN7. Put plainly: microbe, parasite or virus in culture. The test is classed as cell-based. As to conditions: Burkholderia mallei, CHN7, read-out: MIC B. mallei CHN7.
Test [5] relates to Burkholderia pseudomallei Human/Blood/OH/US/1994. Nature of the test: microbe, parasite or virus in culture. The test is classed as cell-based. The note with it: Burkholderia pseudomallei, read-out: MIC B. pseudomallei Human/Blood/OH.
Test [6] deals with Francisella tularensis SCHU4. Put plainly: microbe, parasite or virus in culture. It counts as cell-based. As to conditions: Francisella tularensis, SCHU4, read-out: MIC F. tularensis SCHU4.
The subject of test [7] is Bacillus anthracis Vollum 1b. Nature of the test: microbe, parasite or virus in culture. The test is classed as cell-based. As to conditions: Bacillus anthracis, VOLLUM1B, read-out: MIC B. anthracis Vollum-1b.
Test [8] relates to Mycobacterium tuberculosis H37Rv. Nature of the test: MIC, microplate Alamar Blue assay, M. tuberculosis. The test is classed as cell-based.

≈ marks a conversion by molar mass, not a printed value.

Chain of E. coli RNA polymerase σ^70 holoenzyme (P0A8T7 whole entry): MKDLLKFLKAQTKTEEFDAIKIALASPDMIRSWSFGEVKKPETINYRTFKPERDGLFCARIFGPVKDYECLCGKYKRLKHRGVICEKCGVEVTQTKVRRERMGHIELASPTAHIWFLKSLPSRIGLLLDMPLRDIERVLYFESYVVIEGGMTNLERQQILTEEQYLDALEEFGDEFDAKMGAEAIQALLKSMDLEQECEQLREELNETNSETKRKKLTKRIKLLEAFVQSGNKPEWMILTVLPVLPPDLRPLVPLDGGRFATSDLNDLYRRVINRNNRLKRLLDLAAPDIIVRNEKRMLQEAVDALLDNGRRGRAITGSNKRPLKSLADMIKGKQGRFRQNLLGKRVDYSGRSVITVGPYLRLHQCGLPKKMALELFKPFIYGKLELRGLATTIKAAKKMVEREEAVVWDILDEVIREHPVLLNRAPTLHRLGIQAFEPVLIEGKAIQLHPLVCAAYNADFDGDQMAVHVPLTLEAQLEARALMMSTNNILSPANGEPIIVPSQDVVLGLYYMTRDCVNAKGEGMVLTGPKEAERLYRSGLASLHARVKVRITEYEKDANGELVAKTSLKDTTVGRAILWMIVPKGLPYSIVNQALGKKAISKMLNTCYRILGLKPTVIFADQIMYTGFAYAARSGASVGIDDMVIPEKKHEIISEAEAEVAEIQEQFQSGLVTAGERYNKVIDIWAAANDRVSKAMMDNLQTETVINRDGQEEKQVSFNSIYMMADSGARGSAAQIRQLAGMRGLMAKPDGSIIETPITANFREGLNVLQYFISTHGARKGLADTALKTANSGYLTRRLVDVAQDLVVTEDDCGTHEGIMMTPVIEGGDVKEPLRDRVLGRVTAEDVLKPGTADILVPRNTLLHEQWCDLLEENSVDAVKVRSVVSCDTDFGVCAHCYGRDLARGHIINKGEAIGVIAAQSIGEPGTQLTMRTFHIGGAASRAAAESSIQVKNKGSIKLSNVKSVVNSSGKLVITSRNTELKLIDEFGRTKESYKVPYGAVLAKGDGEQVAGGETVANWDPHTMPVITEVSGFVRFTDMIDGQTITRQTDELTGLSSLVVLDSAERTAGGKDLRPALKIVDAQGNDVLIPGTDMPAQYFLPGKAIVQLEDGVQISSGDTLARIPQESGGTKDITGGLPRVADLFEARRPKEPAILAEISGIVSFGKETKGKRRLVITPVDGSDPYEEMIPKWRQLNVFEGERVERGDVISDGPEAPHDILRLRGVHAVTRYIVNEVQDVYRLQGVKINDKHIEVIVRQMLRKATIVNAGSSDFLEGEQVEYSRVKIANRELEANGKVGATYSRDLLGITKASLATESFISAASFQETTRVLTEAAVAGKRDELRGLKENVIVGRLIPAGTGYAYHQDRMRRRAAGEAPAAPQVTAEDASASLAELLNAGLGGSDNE
Chain of E. coli RNA polymerase σ^70 holoenzyme (P0A800 whole entry, further chain): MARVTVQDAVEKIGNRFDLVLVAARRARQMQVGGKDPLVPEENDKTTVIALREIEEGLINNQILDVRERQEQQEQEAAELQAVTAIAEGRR
Chain of E. coli RNA polymerase σ^70 holoenzyme (P0A8V2 whole entry): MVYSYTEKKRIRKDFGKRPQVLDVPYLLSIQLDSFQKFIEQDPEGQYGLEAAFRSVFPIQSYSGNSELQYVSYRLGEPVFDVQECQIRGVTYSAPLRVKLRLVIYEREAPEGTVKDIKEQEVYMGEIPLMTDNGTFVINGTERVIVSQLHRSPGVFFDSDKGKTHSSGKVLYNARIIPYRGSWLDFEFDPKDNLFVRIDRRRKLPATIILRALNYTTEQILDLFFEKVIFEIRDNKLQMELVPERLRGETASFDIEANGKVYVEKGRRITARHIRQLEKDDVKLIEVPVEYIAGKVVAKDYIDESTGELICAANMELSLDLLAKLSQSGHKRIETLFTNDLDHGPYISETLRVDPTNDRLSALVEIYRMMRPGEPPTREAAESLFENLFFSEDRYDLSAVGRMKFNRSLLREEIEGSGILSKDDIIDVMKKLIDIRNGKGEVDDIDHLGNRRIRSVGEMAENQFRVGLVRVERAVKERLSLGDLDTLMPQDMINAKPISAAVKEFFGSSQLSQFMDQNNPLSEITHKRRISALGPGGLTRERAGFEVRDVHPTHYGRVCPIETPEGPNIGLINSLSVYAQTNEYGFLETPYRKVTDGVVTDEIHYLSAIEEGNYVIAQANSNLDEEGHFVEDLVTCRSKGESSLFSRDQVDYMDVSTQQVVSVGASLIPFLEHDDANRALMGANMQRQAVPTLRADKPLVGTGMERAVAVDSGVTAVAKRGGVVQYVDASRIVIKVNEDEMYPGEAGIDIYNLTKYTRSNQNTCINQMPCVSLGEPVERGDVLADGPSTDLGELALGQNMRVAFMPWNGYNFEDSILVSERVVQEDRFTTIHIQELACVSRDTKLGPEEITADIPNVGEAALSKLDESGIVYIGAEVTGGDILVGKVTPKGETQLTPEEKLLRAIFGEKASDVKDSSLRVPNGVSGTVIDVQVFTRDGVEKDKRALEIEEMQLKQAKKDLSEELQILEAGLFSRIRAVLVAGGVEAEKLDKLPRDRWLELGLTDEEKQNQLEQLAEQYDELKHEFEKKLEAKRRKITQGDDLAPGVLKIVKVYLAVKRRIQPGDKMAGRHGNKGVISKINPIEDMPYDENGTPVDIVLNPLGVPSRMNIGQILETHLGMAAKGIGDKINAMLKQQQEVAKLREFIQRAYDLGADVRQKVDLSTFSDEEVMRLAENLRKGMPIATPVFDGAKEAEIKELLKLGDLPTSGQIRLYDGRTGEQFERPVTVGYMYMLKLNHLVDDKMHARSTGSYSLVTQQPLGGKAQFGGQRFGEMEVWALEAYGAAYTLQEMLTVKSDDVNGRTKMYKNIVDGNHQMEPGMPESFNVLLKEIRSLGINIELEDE
Chain of E. coli RNA polymerase σ^70 holoenzyme (P00579 whole entry, further chain): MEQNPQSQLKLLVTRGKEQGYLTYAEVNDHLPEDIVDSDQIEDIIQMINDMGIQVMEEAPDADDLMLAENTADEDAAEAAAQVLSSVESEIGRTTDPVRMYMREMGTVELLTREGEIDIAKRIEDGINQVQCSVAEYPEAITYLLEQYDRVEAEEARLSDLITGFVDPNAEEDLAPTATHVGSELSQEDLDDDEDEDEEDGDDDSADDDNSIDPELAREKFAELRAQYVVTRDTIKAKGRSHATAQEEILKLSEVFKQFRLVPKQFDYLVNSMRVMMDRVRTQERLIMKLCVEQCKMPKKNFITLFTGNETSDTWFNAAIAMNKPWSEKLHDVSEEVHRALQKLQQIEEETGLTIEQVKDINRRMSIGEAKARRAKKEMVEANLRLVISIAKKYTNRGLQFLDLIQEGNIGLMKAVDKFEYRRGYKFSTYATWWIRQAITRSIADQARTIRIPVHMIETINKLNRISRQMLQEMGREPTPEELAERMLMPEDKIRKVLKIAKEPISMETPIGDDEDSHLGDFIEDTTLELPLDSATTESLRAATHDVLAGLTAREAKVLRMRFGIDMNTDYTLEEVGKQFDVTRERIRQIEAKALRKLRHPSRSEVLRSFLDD
Chain of E. coli RNA polymerase σ^70 holoenzyme (P0A7Z4 whole entry, further chain): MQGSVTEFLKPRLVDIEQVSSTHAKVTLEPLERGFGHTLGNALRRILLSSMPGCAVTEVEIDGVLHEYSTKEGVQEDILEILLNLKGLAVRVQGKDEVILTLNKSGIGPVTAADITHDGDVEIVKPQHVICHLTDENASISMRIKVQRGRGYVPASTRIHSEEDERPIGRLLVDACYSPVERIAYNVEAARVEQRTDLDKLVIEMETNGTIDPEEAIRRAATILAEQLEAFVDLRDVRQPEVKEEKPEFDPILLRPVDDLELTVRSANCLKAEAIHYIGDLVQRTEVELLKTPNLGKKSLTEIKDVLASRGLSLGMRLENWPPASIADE

With `COC(=O)N/C=C/CCC(C)c1cc(O)c(C(=O)C(C)=Cc2ccc(C)cc2)c(=O)o1` (mixture of isomers) [APY57, methyl (E)-5-(4-hydroxy-5-((E/Z)-2-methyl-3-p-tolylacryloyl)-6-oxo-6H-pyran-2-yl)hex-1-enylcarbamate], the MIC in [1] is over 40 µg/mL; in test [3], 1 µg/mL; in test [4], over 40 µg/mL. Also, the half-maximal inhibitory concentration (IC50) in test [2] is over 6000 nM.
As for `CCCc1ccc(C=C(C)C(=O)c2c(O)cc(C(C)CC/C=C/NC(=O)OC)oc2=O)cc1` (mixture of isomers) [APY71, methyl (E)-5-(4-hydroxy-5-((E/Z)-2-methyl-3-(4-propylphenyl)acryloyl)-6-oxo-6H-pyran-2-yl)hex-1-enylcarbamate], the MIC in the test with Brucella melitensis 16M was 10 µg/mL; in test [1] it was over 40 µg/mL; with Burkholderia mallei CHN7, over 50 µg/mL; in test [3], 0.5 µg/mL; in test [5], over 50 µg/mL; in [6] it was over 50 µg/mL. The MIC was 4 µg/mL in test [4] and 30 µg/mL in [7]. Besides, the IC50 in test [2] turned out to be 400 nM.
Regarding `COC(=O)N/C=C/CCC(C)c1cc(O)c(C(=O)C(C)=Cc2ccc(OCCC(C)C)cc2)c(=O)o1` (mixture of isomers) [APY50, methyl (E)-5-(4-hydroxy-3-((E/Z)-3-(4-isopentyloxy)phenyl)-2-methacryloyl-2-oxo-2H-pyran-6-yl)hex-1-enylcarbamate], the results for the MIC in test [1], in test [3] and in test [4] were over 40 µg/mL, 2 µg/mL and over 40 µg/mL, respectively. In addition, the IC50 in test [2] is over 6000 nM.
Take `CCCCCc1ccc(C=C(C)C(=O)c2c(O)cc(C(C)CC/C=C/NC(=O)OC)oc2=O)cc1` (mixture of isomers) [APY72, methyl (E)-5-(4-hydroxy-5-((E/Z)-2-methyl-3-(4-pentylphenyl)acryloyl)-6-oxo-6H-pyran-2-yl)hex-1-enylcarbamate]: the MIC was 2 µg/mL in the test with Brucella melitensis 16M; over 40 µg/mL in test [1]; 10 µg/mL in the test with Burkholderia mallei CHN7; 0.2 µg/mL in [3]; 50 µg/mL in test [5]; 10 µg/mL in [6]. The MIC came out at 2 µg/mL in test [4] and 3 µg/mL in test [7]. For the same compound, the IC50 in test [2] came to 200 nM.
Take `CCc1ccc2cc(C=C(C)C(=O)c3c(O)cc(C(C)CC/C=C/NC(=O)OC)oc3=O)oc2c1` (mixture of isomers) [APY110, methyl ((1E)-5-(3-(3-(6-ethylbenzofuran-2-yl)-2-methylacryloyl)-4-hydroxy-2-oxo-2H-pyran-6-yl)hex-1-en-1-yl)carbamate]: the MIC in [1] is over 40 µg/mL; in [8] it was 30 µg/mL; in test [3], 0.3 µg/mL; in test [4], 8 µg/mL. The IC50 in test [2] was determined as 200 nM.
As to `COC(=O)N/C=C/CCC(C)c1cc(O)c(C(=O)C(C)=Cc2cnc(N3CCCCC3)s2)c(=O)o1` (centres unmarked) [APY142], the MIC is over 40 µg/mL in test [1], 1 µg/mL (≈ 1.99 µM) in test [3] and 20 µg/mL (≈ 39.9 µM) in test [4]. In addition, in test [2], the IC50 amounted to 600 nM.
`CCCc1cn(C)c(C=C(C)C(=O)c2c(O)cc(C(C)CC/C=C/NC(=O)OC)oc2=O)n1` (mixture of isomers) [APY143, methyl ((1E)-5-(4-hydroxy-3-(2-methyl-3-(1-methyl-4-propyl-1H-imidazol-2-yl)acryloyl)-2-oxo-2H-pyran-6-yl)hex-1-en-1-yl)carbamate]: the figures for the MIC in test [1], in test [3] and in [4] were over 40 µg/mL, 10 µg/mL and over 40 µg/mL, respectively. Further, the IC50 in [2] was found to be 1000 nM.
On to `COC(=O)N/C=C/CCC(C)c1cc(O)c(C(=O)C(C)=Cc2cccc(OCCC(C)C)c2)c(=O)o1` (mixture of isomers) [APY51, methyl (E)-5-(4-hydroxy-3-((E/Z)-3-(3-isopentyloxy)phenyl)-2-methacryloyl-2-oxo-2H-pyran-6-yl)hex-1-enylcarbamate], for which the MIC is over 40 µg/mL in test [1], 0.5 µg/mL in test [3] and over 40 µg/mL in [4]. The half-maximal inhibitory concentration (IC50) in test [2] amounted to 1000 nM.
Regarding `COC(=O)N/C=C/CCC(C)c1cc(O)c(C(=O)C(C)=Cc2cc3ccc(CCC(F)(F)F)cc3o2)c(=O)o1` (mixture of isomers) [APY112, methyl ((1E)-5-(4-hydroxy-3-(2-methyl-3-(6-(3,3,3-trifluoropropyl)benzofuran-2-yl)acryloyl)-2-oxo-2H-pyran-6-yl)hex-1-en-1-yl)carbamate], the MIC is over 40 µg/mL in [1], 0.2 µg/mL in test [3] and over 40 µg/mL in [4]. In addition, the IC50 in test [2] was 300 nM.
Take `COC(=O)N/C=C/CCC(C)c1cc(O)c(C(=O)C(C)=Cc2ccc(OCC3CCCO3)cc2)c(=O)o1` (mixture of isomers) [APY54, methyl (E)-5-(4-hydroxy-3-((E/Z)-2-methyl-3-(4-((tetrahydrofuran-2-yl)methoxy)phenyl)acryloyl)-2-oxo-2H-pyran-6-y)hex-1-enylcarbamate]: the MIC in [1] was over 40 µg/mL; in test [3], 7 µg/mL; in test [4], over 40 µg/mL. Further, in [2], the IC50 was over 6000 nM.
On to `COC(=O)N/C=C/CCC(C)c1cc(O)c(C(=O)C(C)=Cc2cc3ccc(CCC(C)C)cc3o2)c(=O)o1` (mixture of isomers) [APY111, methyl ((1E)-5-(4-hydroxy-3-(3-(6-isopentylbenzofuran-2-yl)-2-methylacryloyl)-2-oxo-2H-pyran-6-yl)hex-1-en-1-yl)carbamate], for which the MIC was over 40 µg/mL in [1], 0.3 µg/mL in [3] and over 40 µg/mL in test [4]. For the same compound, in test [2], the IC50 was 50 nM.
For the compound `COC(=O)N/C=C/CCC(C)c1cc(O)c(C(=O)C(C)=Cc2ccc(C)s2)c(=O)o1` (mixture of isomers) [APY69, methyl (E)-5-(4-hydroxy-5-((E/Z)-2-methyl-3-(5-methylthiophen-2-yl)acryloyl)-6-oxo-6H-pyran-2-yl)hex-1-enylcarbamate], the values for the MIC in [1], in test [3] and in [4] were over 40 µg/mL, 7 µg/mL and over 40 µg/mL, respectively. For the same compound, the IC50 in test [2] turned out to be 1000 nM.
In the case of `COC(=O)N/C=C/CCC(C)c1cc(O)c(C(=O)C(C)=Cc2cc3ccc(CCC(F)(F)F)cc3s2)c(=O)o1` (mixture of isomers) [APY114, methyl ((1E)-5-(4-hydroxy-3-(2-methyl-3-(6-(3,3,3-trifluoropropyl)benzo[b]thiophen-2-yl)acryloyl)-2-oxo-2H-pyran-6-yl)hex-1-en-1-yl)carbamate], the MIC was over 40 µg/mL in test [1], 0.2 µg/mL in [3] and over 40 µg/mL in test [4]. Further, the IC50 in test [2] worked out at 300 nM.
For the compound `COC(=O)N/C=C/CCC(C)c1cc(O)c(C(=O)C(C)=Cc2cc(CCC(F)(F)F)cn2C)c(=O)o1` (mixture of isomers) [APY135, methyl ((1E)-5-(4-hydroxy-3-(2-methyl-3-(1-methyl-4-(3,3,3-trifluoropropyl)-1H-pyrrol-2-yl)acryloyl)-2-oxo-2H-pyran-6-yl)hex-1-en-1-yl)carbamate], the figures for the MIC in [1], in test [3] and in test [4] were over 40 µg/mL, 2 µg/mL and 10 µg/mL, respectively. Further, in test [2], the IC50 amounted to 100 nM.
For `COC(=O)N/C=C/CCC(C)c1cc(O)c(C(=O)C(C)=Cc2ccc(CCC3CCCCC3)s2)c(=O)o1` (mixture of isomers) [APY62, methyl (E)-5-(5-((E/Z)-3-(5-(2-cyclohexylethyl)thiophen-2-yl)-2-methylacryloyl)-4-hydroxy-6-oxo-6H-pyran-2-yl)hex-1-enylcarbamate] the same measures were over 40 µg/mL, 10 µg/mL, 2 µg/mL and 10 nM.
